Data published in patent US9018218B2 (priority 2010, dated 2015).
Where two headings read alike, the source gives them in different places.

How the values were obtained:
cucumber downy mildew = test: fungicidal activity in vivo, cucumber downy mildew on cucumber seedling leaves; conditions: spray, investigated after 5 days
Experimental: (§1) The procedure of determination of fungicidal activity in vivo is as follow:
The compounds of the present invention were diluted to given concentrations and sprayed on the leaves of cucumber seedling at the same stage, on which growing point were cut off and two euphyllas were kept meanwhile, water were set as the blank control, three replicates were set for each treatment. Cucumber downy mildew spore suspension were inoculated on the second day after treatment, then, the plants were placed in a chamber (temperature: day 25° C., and night 20° C., relative humidity 95 to 100%), and then placed in greenhouse (25±2° C.) 24 hours later and routine management was conducted. The test results were investigated after 5 days, disease grading refers to the national standard of the People's Republic of China [The test criteria of pesticide field trial], the control effect was calculated by disease index.

wheat powdery mildew = test: fungicidal activity in vivo, wheat powdery mildew on wheat seedling leaves; conditions: spray, investigated after 7 days
Experimental: as §1
The compounds of the present invention were diluted to given concentrations and sprayed on the leaves of wheat seedling at the same two-leaf stage, meanwhile, water were set as the blank control, three replicates were set for each treatment. Wheat powdery mildew spore suspension were inoculated on the second day after treatment, and then placed in greenhouse (25±2° C.) and routine management was conducted. The test results were investigated after 7 days, disease grading refers to the national standard of the People's Republic of China [The test criteria of pesticide field trial], the control effect was calculated by disease index.

wheat rust = conditions: in vivo
rice blast = test: microbe, parasite or virus in culture; assay type: cell-based; conditions: for rice blast inhibition rate %: in vitro spore germination; for inhibition at 25 µg/mL / inhibition at 2.8 µg/mL / inhibition at 8.3 µg/mL: Pyricularia oryzae, read-out: rice blast inhibition rate %
[1] = 100 mg/L, spray, investigated after 7 days
[2] = 400 mg/L, spray, investigated after 7 days

**Q.** With `CCCCc1c(C)nc(Nc2ccccc2)nc1OC(=O)OC(C)C` [Compound 46] as the compound, how does the “cucumber downy mildew control %” value (cucumber downy mildew; 100 mg/L) read?
**A.** Its value is 10%.

**Q.** And the “cucumber downy mildew control %” value (cucumber downy mildew; 400 mg/L)?
**A.** The value was 95%.

**Q.** And the “wheat powdery mildew control %” value (wheat powdery mildew; 50 mg/L)?
**A.** The value was 98%.

**Q.** What about the “wheat powdery mildew control %” value (wheat powdery mildew; 100 mg/L) of the same compound?
**A.** Its value is 100%.

**Q.** What about the “wheat powdery mildew control %” value (wheat powdery mildew; 400 mg/L) of the same compound?
**A.** Its value is 100%.

**Q.** And the “wheat rust control %” value (wheat rust; [1])?
**A.** Its value is 0%.

**Q.** And the “wheat rust control %” value (wheat rust; [2])?
**A.** The value was 100%.

**Q.** What about the “rice blast inhibition rate %” value (rice blast; 2.8 mg/L) of the same compound?
**A.** Its value is 80%.

**Q.** What about the “rice blast inhibition rate %” value (rice blast; 8.3 mg/L) of the same compound?
**A.** The value was 100%.

**Q.** What about the “rice blast inhibition rate %” value (rice blast; 25 mg/L) of the same compound?
**A.** Its value is 100%.

**Q.** With `Cc1nc(Nc2ccccc2)nc(OC(=O)OC(C)C)c1C` [Compound 253] as the compound, how does the “cucumber downy mildew control %” value (cucumber downy mildew; 400 mg/L) read?
**A.** Its value is 20%.

**Q.** What about the “wheat powdery mildew control %” value (wheat powdery mildew; 400 mg/L) of the same compound?
**A.** Its value is 0%.

**Q.** What about the “wheat rust control %” value (wheat rust; [2]) of the same compound?
**A.** Its value is 95%.

**Q.** What about the “rice blast inhibition rate %” value (rice blast; 2.8 mg/L) of the same compound?
**A.** The value was 50%.

**Q.** And the “rice blast inhibition rate %” value (rice blast; 8.3 mg/L)?
**A.** The value was 80%.

**Q.** What about the “rice blast inhibition rate %” value (rice blast; 25 mg/L) of the same compound?
**A.** Its value is 100%.

**Q.** Which “cucumber downy mildew control %” value (cucumber downy mildew; 400 mg/L) does the source give for `CCCCc1c(C)nc(Nc2ccccc2)nc1OC(=O)OCc1ccccc1` [Compound 156] here?
**A.** Its value is 30%.

**Q.** What about the “wheat powdery mildew control %” value (wheat powdery mildew; 100 mg/L) of the same compound?
**A.** The value was 80%.

**Q.** What about the “wheat powdery mildew control %” value (wheat powdery mildew; 400 mg/L) of the same compound?
**A.** Its value is 100%.

**Q.** And the “wheat rust control %” value (wheat rust)?
**A.** Its value is 0%.

**Q.** What about the inhibition at 25 µg/mL (rice blast) of the same compound?
**A.** The inhibition at 25 µg/mL was 80%.

**Q.** Which results are given for `CCCCc1c(C)nc(N(C)C)nc1OC(=O)OCC` [Compound K1, reference compound]?
**A.** cucumber downy mildew control % (cucumber downy mildew; 400 mg/L): 0%; wheat powdery mildew control % (wheat powdery mildew; 100 mg/L): 0%; wheat powdery mildew control % (wheat powdery mildew; 400 mg/L): 100%; wheat rust control % (wheat rust): 0%; inhibition at 2.8 µg/mL (rice blast): 0%; inhibition at 8.3 µg/mL (rice blast): 80%; inhibition at 25 µg/mL (rice blast): 100%

**Q.** For `CCCCc1c(C)nc(Nc2ccc(OC(F)(F)F)cc2)nc1OC(=O)OC` [Compound 13], which “cucumber downy mildew control %” value (cucumber downy mildew; 400 mg/L) is on record?
**A.** The value was 30%.

**Q.** What about the “wheat powdery mildew control %” value (wheat powdery mildew; 400 mg/L) of the same compound?
**A.** Its value is 95%.

**Q.** What about the “wheat rust control %” value (wheat rust; [2]) of the same compound?
**A.** Its value is 0%.

**Q.** What does the source list for `Cc1cc(OC(=O)OC(C)C)nc(Nc2ccccc2)n1` [Compound 270]?
**A.** cucumber downy mildew control % (cucumber downy mildew; 400 mg/L): 0%; wheat powdery mildew control % (wheat powdery mildew; 400 mg/L): 0%; wheat rust control % (wheat rust; [2]): 60%; rice blast inhibition rate % (rice blast; 8.3 mg/L): 0%; rice blast inhibition rate % (rice blast; 25 mg/L): 100%

**Q.** Which “cucumber downy mildew control %” value (cucumber downy mildew; 400 mg/L) does the source give for `CC(C)OC(=O)Oc1nc(Nc2ccccc2)nc2c1CCC2` [Compound 393] here?
**A.** Its value is 0%.

**Q.** And the “wheat powdery mildew control %” value (wheat powdery mildew; 400 mg/L)?
**A.** The value was 0%.

**Q.** And the “wheat rust control %” value (wheat rust)?
**A.** Its value is 70%.

**Q.** What about the inhibition at 2.8 µg/mL (rice blast) of the same compound?
**A.** Its inhibition at 2.8 µg/mL is 0%.

**Q.** And the inhibition at 8.3 µg/mL (rice blast)?
**A.** Its inhibition at 8.3 µg/mL is 80%.

**Q.** And the inhibition at 25 µg/mL (rice blast)?
**A.** The inhibition at 25 µg/mL was 100%.

**Q.** And the melting point?
**A.** Its melting point is 124 to 126 °C.

**Q.** Which results are given for `CCCCc1c(C)nc(Nc2ccc(OC(F)(F)F)cc2)nc1OC(=O)OC(C)C` [Compound 53]?
**A.** cucumber downy mildew control % (cucumber downy mildew; 400 mg/L): 95%; wheat powdery mildew control % (wheat powdery mildew; 400 mg/L): 50%; wheat rust control % (wheat rust; [2]): 0%; rice blast inhibition rate % (rice blast; 25 mg/L): 50%

**Q.** For `CC(C)OC(=O)Oc1nc(Nc2ccc(F)c(F)c2F)nc2c1CCCC2` [Compound 443], which “cucumber downy mildew control %” value (cucumber downy mildew; 400 mg/L) is on record?
**A.** Its value is 90%.

**Q.** What about the “wheat powdery mildew control %” value (wheat powdery mildew; 400 mg/L) of the same compound?
**A.** Its value is 0%.

**Q.** And the “wheat rust control %” value (wheat rust)?
**A.** The value was 0%.

**Q.** What about the inhibition at 2.8 µg/mL (rice blast) of the same compound?
**A.** The inhibition at 2.8 µg/mL was 50%.

**Q.** What about the inhibition at 8.3 µg/mL (rice blast) of the same compound?
**A.** The inhibition at 8.3 µg/mL was 100%.

**Q.** And the inhibition at 25 µg/mL (rice blast)?
**A.** Its inhibition at 25 µg/mL is 100%.

**Q.** And the melting point?
**A.** The melting point was 124 to 126 °C.

**Q.** For `CCCCc1c(C)nc(Nc2ccccc2)nc1OC(=O)OCC` [Compound 75], which “cucumber downy mildew control %” value (cucumber downy mildew; 100 mg/L) is on record?
**A.** Its value is 30%.

**Q.** And the “cucumber downy mildew control %” value (cucumber downy mildew; 400 mg/L)?
**A.** Its value is 95%.

**Q.** And the “wheat powdery mildew control %” value (wheat powdery mildew; 50 mg/L)?
**A.** The value was 50%.

**Q.** And the “wheat powdery mildew control %” value (wheat powdery mildew; 100 mg/L)?
**A.** Its value is 98%.

**Q.** And the “wheat powdery mildew control %” value (wheat powdery mildew; 400 mg/L)?
**A.** Its value is 95%.

**Q.** And the “wheat rust control %” value (wheat rust; 50 mg/L, spray, investigated after 7 days)?
**A.** Its value is 30%.

**Q.** And the “wheat rust control %” value (wheat rust; [1])?
**A.** The value was 60%.

**Q.** What about the “wheat rust control %” value (wheat rust; [2]) of the same compound?
**A.** The value was 98%.

**Q.** And the “rice blast inhibition rate %” value (rice blast; 25 mg/L)?
**A.** Its value is 50%.

**Q.** With `CCCCOC(=O)Oc1nc(Nc2ccccc2)nc(C)c1CCCC` [Compound 101] as the compound, how does the “cucumber downy mildew control %” value (cucumber downy mildew; 400 mg/L) read?
**A.** The value was 70%.

**Q.** And the “wheat powdery mildew control %” value (wheat powdery mildew; 50 mg/L)?
**A.** Its value is 70%.

**Q.** And the “wheat powdery mildew control %” value (wheat powdery mildew; 100 mg/L)?
**A.** Its value is 95%.

**Q.** And the “wheat powdery mildew control %” value (wheat powdery mildew; 400 mg/L)?
**A.** Its value is 100%.

**Q.** What about the “wheat rust control %” value (wheat rust; [1]) of the same compound?
**A.** Its value is 0%.

**Q.** What about the “wheat rust control %” value (wheat rust; [2]) of the same compound?
**A.** The value was 98%.

**Q.** What about the “rice blast inhibition rate %” value (rice blast; 25 mg/L) of the same compound?
**A.** Its value is 50%.

**Q.** With `CCCCc1c(C)nc(Nc2ccccc2)nc1OC(=O)OC(C)c1ccccc1` (stereo not drawn) [Compound 173] as the compound, how does the “cucumber downy mildew control %” value (cucumber downy mildew; 400 mg/L) read?
**A.** The value was 50%.

**Q.** What about the “wheat powdery mildew control %” value (wheat powdery mildew; 100 mg/L) of the same compound?
**A.** The value was 80%.

**Q.** What about the “wheat powdery mildew control %” value (wheat powdery mildew; 400 mg/L) of the same compound?
**A.** Its value is 100%.

**Q.** And the “wheat rust control %” value (wheat rust; [2])?
**A.** Its value is 0%.

**Q.** And the “rice blast inhibition rate %” value (rice blast; 25 mg/L)?
**A.** The value was 50%.

**Q.** For `CC(C)OC(=O)Oc1nc(Nc2ccccc2)nc2c1CCCC2` [Compound 427], which “cucumber downy mildew control %” value (cucumber downy mildew; 400 mg/L) is on record?
**A.** Its value is 0%.

**Q.** And the “wheat powdery mildew control %” value (wheat powdery mildew; 400 mg/L)?
**A.** Its value is 0%.

**Q.** What about the “wheat rust control %” value (wheat rust; [2]) of the same compound?
**A.** Its value is 98%.

**Q.** What about the “rice blast inhibition rate %” value (rice blast; 8.3 mg/L) of the same compound?
**A.** Its value is 80%.

**Q.** What about the “rice blast inhibition rate %” value (rice blast; 25 mg/L) of the same compound?
**A.** The value was 100%.

**Q.** Which results are given for `COC(=O)Oc1cc(C2CC2)nc(Nc2ccccc2)n1` [Compound K2, reference compound]?
**A.** cucumber downy mildew control % (cucumber downy mildew; 400 mg/L): 0%; wheat powdery mildew control % (wheat powdery mildew; 400 mg/L): 0%; wheat rust control % (wheat rust): 0%; inhibition at 25 µg/mL (rice blast): 80%

**Q.** With `CCCCc1c(C)nc(Nc2ccccc2)nc1OC(=O)OC` [Compound 1] as the compound, how does the “cucumber downy mildew control %” value (cucumber downy mildew; 50 mg/L) read?
**A.** The value was 0%.

**Q.** And the “cucumber downy mildew control %” value (cucumber downy mildew; 100 mg/L)?
**A.** The value was 20%.

**Q.** And the “cucumber downy mildew control %” value (cucumber downy mildew; 400 mg/L)?
**A.** Its value is 95%.

**Q.** What about the “wheat powdery mildew control %” value (wheat powdery mildew; 50 mg/L) of the same compound?
**A.** Its value is 98%.

**Q.** And the “wheat powdery mildew control %” value (wheat powdery mildew; 100 mg/L)?
**A.** The value was 100%.

**Q.** What about the “wheat powdery mildew control %” value (wheat powdery mildew; 400 mg/L) of the same compound?
**A.** Its value is 100%.
